Our source for the inhibition values is patent publication US20250228242A1 (priority 2021, published 2025).

Structures can show the parent of a compound that is named as a salt.

The experiment has as its system P. infestans. Nature of the experiment: whole plant or invertebrate. It is filed as in vivo. The following applies: Phytophthora infestans, in Solanum tuberosum, read-out: P. infestans % inhibition.

In the case of `Cc1ccc(-c2noc(-c3ccc(S(C)(=O)=O)cc3)n2)cc1` [Compound 89, 3-(4-Methylphenyl)-5-[4-(methylsulfonyl)phenyl]-1,2,4-oxadiazole], the inhibition at 100 µM is 8%.

For `CCc1ccc(-c2cc(-c3ccc(N4CCC4)cc3)on2)cc1` [Compound 90, 5-[4-(Azetidin-1-yl)phenyl]-3-(4-ethylphenyl)-1,2-oxazole], the inhibition at 100 µM came out at 13%. Under `Clc1ccccc1-c1cc(-c2ccc(N3CCCCC3)cc2)on1` [Compound 91, 1-{4-[3-(2-Chlorophenyl)-1,2-oxazol-5-yl]phenyl}piperidine] stands 29%; under `O=S(=O)(Nc1ccc(-c2n[nH]c(-c3ccc(C(F)(F)F)cc3)n2)cc1)c1ccc(Cl)cc1` [Compound 92, 4-Chloro-N-(4-{5-[4-(trifluoromethyl)phenyl]-1H-1,2,4-triazol-3-yl}phenyl)benzenesulfonamide], 84%; under `CC(C)[C@H](N)C(=O)Nc1ccc(-c2cc(-c3cccc(F)c3)on2)cc1` [Compound 93, (2S)-2-Amino-N-{4-[5-(3-fluorophenyl)-1,2-oxazol-3-yl]phenyl}-3-methylbutanamide hydrochloride], 95%. With `O=C(Nc1ccccc1)Nc1ccc(-c2nc(-c3cccc(C(F)(F)F)c3)no2)cc1` [Compound 94, 1-Phenyl-3-(4-{3-[3-(trifluoromethyl)phenyl]-1,2,4-oxadiazol-5-yl}phenyl)urea], the inhibition at 100 µM came to 9%.

For `CCOC(=O)c1ccc(-c2noc(-c3ccc(SC)cc3)n2)cc1` [Compound 95, Ethyl 4-{5-[4-(methylsulfanyl)phenyl]-1,2,4-oxadiazol-3-yl}benzoate], the inhibition at 100 µM was 9%. Consider `CSc1ccc(-c2nc(-c3ccc(C(=O)O)cc3)no2)cc1` [Compound 96, 4-{5-[4-(Methylsulfanyl)phenyl]-1,2,4-oxadiazol-3-yl}benzoic acid], for which the inhibition at 100 µM was 4%.

As to `CC1(C)CCc2cc(-c3cc(-c4cccc(Br)c4)[nH]n3)ccc2O1` [Compound 97, 5-(3-Bromophenyl)-3-(2,2-dimethyl-3,4-dihydro-2H-chromen-6-yl)-1H-pyrazole], the inhibition at 100 µM worked out at 10%. In the case of `CN1CCOc2cc(-c3nc(-c4cccc(N5CCOCC5)c4)no3)ccc21` [Compound 98, 4-Methyl-7-{3-[3-(morpholin-4-yl)phenyl]-1,2,4-oxadiazol-5-yl}-3,4-dihydro-2H-1,4-benzoxazine], the inhibition at 100 µM worked out at 22%. As to `Cc1ccc([N+](=O)[O-])cc1-c1nc(-c2ccc(F)cc2)n[nH]1` [Compound 99, 3-(4-Fluorophenyl)-5-(2-methyl-5-nitrophenyl)-1H-1,2,4-triazole], the inhibition at 100 µM stood at 64%. Under `Cc1ccc(N)cc1-c1nc(-c2ccc(F)cc2)n[nH]1` [Compound 100, 5-(3-Amino-6-methylphenyl)-3-(4-fluorophenyl)-1H-1,2,4-triazole] stands 51%; under `CCNC(=O)Nc1ccc(C)c(-c2nc(-c3ccc(F)cc3)n[nH]2)c1` [Compound 101, 1-Ethyl-3-{3-[3-(4-fluorophenyl)-1H-1,2,4-triazol-5-yl]-4-methylphenyl}urea], 69%. Consider `Cc1ccc(NC(=O)c2cccc(Cl)c2)cc1-c1nc(-c2ccc(F)cc2)n[nH]1` [Compound 102, 3-Chloro-N-{3-[3-(4-fluorophenyl)-1H-1,2,4-triazol-5-yl]-4-methylphenyl}benzamide], for which the inhibition at 100 µM was found to be 30%. Under `Cc1ccc(NC(=O)[C@@H](N)Cc2ccccc2)cc1-c1nc(-c2ccc(F)cc2)n[nH]1` [Compound 103, (2S)-2-Amino-N-{3-[3-(4-fluorophenyl)-1H-1,2,4-triazol-5-yl]-4-methylphenyl}-3-phenylpropanamide hydrochloride] stands 99%; under `COc1ccc(-c2n[nH]c(-c3cccc(N(C)C)c3)n2)cc1OC` [Compound 105, 3-[3-(3,4-Dimethoxyphenyl)-1H-1,2,4-triazol-5-yl]-N,N-dimethylaniline], 77%; under `CCOc1cccc(-c2nc(-c3cccc(C)c3)n[nH]2)c1` [Compound 106, 5-(3-Ethoxyphenyl)-3-(3-methylphenyl)-1H-1,2,4-triazole], 44%.

As for `Cc1cccc(-c2n[nH]c(-c3cccc(O)c3)n2)c1` [Compound 107, 5-(3-Hydroxyphenyl)-3-(3-methylphenyl)-1H-1,2,4-triazole], the inhibition at 100 µM stood at 91%.

In the case of `CCOC(=O)Nc1cccc(-c2c[nH]c(-c3ccc(F)cc3)n2)c1` [Compound 108, Ethyl {3-[2-(4-fluorophenyl)-1H-imidazol-5-yl]phenyl}carbamate], the inhibition at 100 µM was 51%. For the molecule `c1cc2c(cc1-c1cnc(-c3ccc(N4CCOCC4)cc3)[nH]1)CCO2` [Compound 109, 4-{4-[5-(2,3-Dihydro-1-benzofuran-5-yl)-1H-imidazol-2-yl]phenyl}morpholine], the inhibition at 100 µM came to 11%. Under `CCOc1ccc(-c2coc(-c3cccc(C(C)C)c3)n2)cc1` [Compound 110, 4-(4-Ethoxyphenyl)-2-[3-(propan-2-yl)phenyl]-1,3-oxazole] stands 18%; under `Clc1ccc(-c2cc(-c3ccc4c(c3)OCCO4)n[nH]2)cc1` [Compound 111, 5-(4-Chlorophenyl)-3-(2,3-dihydro-1,4-benzodioxin-6-yl)-1H-pyrazole], 24%; under `Brc1cccc(-c2cc(-c3ccc4nccnc4c3)n[nH]2)c1` [Compound 112, 6-[5-(3-Bromophenyl)-1H-pyrazol-3-yl]quinoxaline], 44%. As to `COc1ccc(-c2c[nH]c(-c3ccc(Cl)cc3)n2)cc1` [Compound 113, 2-(4-Chlorophenyl)-5-(4-methoxyphenyl)-1H-imidazole], the inhibition at 100 µM was found to be 90%.

`CN1CCN(c2cccc(-c3nc(-c4ccc5c(c4)OCCO5)co3)c2)CC1` [Compound 114, 1-Methyl-4-{3-[4-(2,3-dihydro-1,4-benzodioxin-6-yl)-1,3-oxazol-2-yl]phenyl}piperazine]: the inhibition at 100 µM amounted to 93%. In the case of `CCOC(=O)c1ccc(-c2ncc(-c3ccc(C)cc3)o2)cc1` [Compound 115, Ethyl 4-[5-(4-methylphenyl)-1,3-oxazol-2-yl]benzoate], the inhibition at 100 µM is 12%. As for `Cc1ccc(-c2cnc(-c3ccc(C(=O)O)cc3)o2)cc1` [Compound 116, 4-[5-(4-Methylphenyl)-1,3-oxazol-2-yl]benzoic acid], the inhibition at 100 µM came to 72%. As to `COc1ccc(-c2c[nH]c(-c3ccc(Br)cc3)n2)cc1` [Compound 117, 2-(4-Bromophenyl)-5-(4-methoxyphenyl)-1H-imidazole], the inhibition at 100 µM was determined as 97%. Then `Oc1ccc(-c2c[nH]c(-c3ccc(Br)cc3)n2)cc1` [Compound 118, 2-(4-Bromophenyl)-5-(4-hydroxyphenyl)-1H-imidazole], with 83%. In the case of `CS(=O)(=O)Nc1cccc(-c2ncc(-c3ccc(Cl)c(Cl)c3)o2)c1` [Compound 119, N-{3-[5-(3,4-Dichlorophenyl)-1,3-oxazol-2-yl]phenyl} methanesulfonamide], the inhibition at 100 µM came out at 15%.

On to `COC(=O)Nc1cccc(-c2ncc(-c3ccc(Cl)c(Cl)c3)o2)c1` [Compound 120, Methyl {3-[5-(3,4-dichlorophenyl)-1,3-oxazol-2-yl]phenyl}carbamate], for which the inhibition at 100 µM was 12%. On to `CCOC(=O)c1cccc(-c2ncc(-c3ccc(C(F)(F)F)cc3OC)o2)c1` [Compound 121, Ethyl 3-{5-[2-methoxy-4-(trifluoromethyl)phenyl]-1,3-oxazol-2-yl}benzoate], for which the inhibition at 100 µM amounted to 28%. Regarding `COc1cc(C(F)(F)F)ccc1-c1cnc(-c2cccc(C(=O)O)c2)o1` [Compound 122, 3-{5-[2-Methoxy-4-(trifluoromethyl)phenyl]-1,3-oxazol-2-yl}benzoic acid], the inhibition at 100 µM stood at 36%.

In the case of `CCN(CC)C(=O)c1cccc(-c2ncc(-c3ccc(C(F)(F)F)cc3OC)o2)c1` [Compound 123, N,N-diethyl-3-{5-[2-methoxy-4-(trifluoromethyl)phenyl]-1,3-oxazol-2-yl}benzamide], the inhibition at 100 µM was 33%. Take `COc1ccc(S(=O)(=O)Nc2ccc(-c3coc(-c4ccc(OC(C)C)cc4)n3)cc2)cc1` [Compound 124]: the inhibition at 100 µM came to 4%.

In the case of `CCc1ccc(-c2c[nH]c(-c3cccc(C(=O)O)c3)n2)cc1` [Compound 125, 3-[4-(4-Ethylphenyl)-1H-imidazol-2-yl]benzoic acid], the inhibition at 100 µM is 30%. Under `CCc1ccc(-c2cc(-c3cccc(NC(=O)OCCOC)c3)[nH]n2)cc1` [Compound 126, 2-Methoxyethyl {3-[5-(4-ethylphenyl)-1H-pyrazol-3-yl]phenyl}carbamate] stands 81%; under `O=C(Nc1ccc(F)cc1)Nc1ccc(-c2cc(-c3cccc(OC(F)(F)F)c3)n[nH]2)cc1` [Compound 127, 1-(4-Fluorophenyl)-3-(4-{5-[3-(trifluoromethoxy)phenyl]-1H-pyrazol-3-yl}phenyl)urea], 18%; under `O=C(Nc1ccc(-c2cc(-c3cccc(OC(F)(F)F)c3)n[nH]2)cc1)C(F)(F)F` [Compound 128, 2,2,2-Trifluoro-N-(4-{5-[3-(trifluoromethoxy)phenyl]-1H-pyrazol-3-yl}phenyl)acetamide], 6%.

`COc1cc(Cl)cc(-c2nc(-c3ccc(OC(F)(F)F)cc3)co2)c1` [Compound 130, 2-(3-Chloro-5-methoxyphenyl)-4-[4-(trifluoromethoxy)phenyl]-1,3-oxazole]: the inhibition at 100 µM was 9%. As to `Cc1cc(F)ccc1-c1cnc(-c2cccc(NC(=O)[C@@H](N)CCC(N)=O)c2)o1` [Compound 131, (2S)-2-Amino-N1-{3-[5-(4-fluoro-2-methylphenyl)-1,3-oxazol-2-yl]phenyl}pentanediamide hydrochloride], the inhibition at 100 µM amounted to 47%. Consider `Oc1cc(Cl)cc(-c2nc(-c3ccc(OC(F)(F)F)cc3)co2)c1` [Compound 132, 2-(3-Chloro-5-hydroxyphenyl)-4-[4-(trifluoromethoxy)phenyl]-1,3-oxazole], for which the inhibition at 100 µM is 66%.
